Results on 6 compounds are retold here after patent US4751227A, “3-cyano-5-(6-imidazo[1,2-a]pyridyl)pyridin-2-ols useful as cardiotonics” (Eisai Co., Ltd., priority 1985, dated 1988).

For one series, the system named is Anesthetized Dog. Nature of the series: Effect of compounds on cardiac contractility, heart rate and blood pressure in Anesthetized Dog. The following applies: intravenous. The class given is in vivo, mongrel dogs. The protocol: Effect of compounds on cardiac contractility in Anesthetized Dog
Using male and female mongrel dogs subjected to artificial respiration and anesthetized by inhalation of Halothane cardiotonic effect of compounds was examined. The aortic pressure and the left ventricular pressure were recorded with a catheter inserted from the femoral artery into the aorta of the chest and with a micro tip pressure transducer (Millar) inserted from the carotid into the left ventricle, respectively. The heart rate was monitored by means of a tachograph triggered by the left ventricular pressure pulse. As an index of cardiac contractility, a primary differentation (LV dp/dt max) of the left ventricular pressure pulse was recorded. The test compounds were dissolved in physiological saline or diluted hydrochloric acid or polyethylene glycol and the solutions were intravenously given through the catheter inserted into the femoral vein.
Percent changes by the test compounds in cardiac contractility, heart rate and blood pressure obtained by the foregoing method are shown in Table 2, when compared to those prior to administration of the test compounds. In Table 2, the test compounds are those prepared in the examples later described.

Series [1] concerns coronary and femoral blood flow. As to the kind of experiment: Effect of compounds on coronary and femoral blood flow in anesthetized dogs. The class given is in vivo, mongrel dogs. Conditions: intraarterial. As to the method: Effect of compounds on coronary and femoral blood flow
Using male and femal mongrel dogs thoracotomized at the left 4th intercostal space under artificial respiration and inhalation anesthesia with Halothane, effect of coronary and femoral blood flow was examined by intrarterial administration. By placing an electromagnetic flowprobe around the left circumflex coronary artery and the femoral artery, the blood flows of both arteries were measured. Shallow catheters were inserted in and fixed to the arterial branch distal to the flowprobe and the test compounds were intrarterially administered through the catheters. In this case, the blood pressure, the heart rate and the cardiac contractility were also recorded simultaneously. Each test compound was used by dissolving it in physiological saline, diluted hydrochloric acid or polyethylene glycol in a dose not accompanied by any change in the blood pressure, the heart rate and the cardiac contractility.

For another series, the system named is rats. As to the kind of experiment: Acute toxicity test by oral administration in rats. It counts as in vivo. The following applies: 3 g/kg, 4 in each group. As to the method: (§1) Acute toxicity was tested by oral administration in rats and mice. The results reveal that the compounds of the present invention have extremely low toxicity.
The subject of a further series is mice. As to the kind of experiment: Acute toxicity test by oral administration in mice. The class given is in vivo. The following applies: 3 g/kg, 4 in each group. As to the method:
as §1

The test system of series [2] is isolated Guinea Pig heart muscles. Nature of the series: Effects of compounds on contractile response of isolated Guinea Pig heart muscles (right ventricular papillary muscles). The following applies: Cavia porcellus, read-out: Contractilities; for activation at 100 µM: Concentration 10^-4 M; for activation at 10 µM: Concentration 10^-5 M; for activation at 1 µM: Concentration 10^-6 M. The protocol: Effects of compounds on contractile response of isolated Guinea Pig heart muscles
Male guinea pigs weighing 300 to 500 g were stunned with a blow on the head and exsanguinated. The chest was opened rapidly, the heart was excised and papillary muscles from the right ventricle were excised.
The preparations were mounted in 10 ml organ bath which were filled with Krebs-Henseleit solution maintained at 36° C. and oxygenated with 95% O2 -5% CO2.
Right ventricular papillary muscles were stimulated electrically at a rate of 1 Hz by a suprathreshold (1.2×threshold) rectangular pulse 3 ms in duration. The resting tension applied to the papillary muscles was adjusted to produce maximum developed tension. The developed tension was recorded isometrically by means of force-displacement transducer. The text compounds were dissolved in diluted hydrochloric acid and were added to the bath. Contractility after administration was compared to that prior to administration.
The test compounds are those prepared in the examples later described.

In a further series the test system is platelets. As to the kind of experiment: Effect of compounds on platelet aggregation caused by collagen. The class given is cell-based, healthy volunteers. Conditions: Homo sapiens, collagen 1 μg/ml, read-out: inhibition rate of platelet aggregation. The protocol: Effect of compounds on platelet aggregation
Using platelets obtained from healthy volunteers, effect of compounds on platelet aggregation caused by collagen (1 μg/ml) was examined.

As for `Cc1[nH]c(=O)c(C#N)cc1-c1ccc2nccn2c1` [Example 1, 1,2-Dihydro-5-(imidazo[1,2-a]pyridin-6-yl)-6-methyl-2-oxo-3-pyridinecarbonitrile], in the series on Anesthetized Dog (10 μg/kg), the “Change in Blood Pressure” value came out at 0%, the “Change in Cardiac Contractility (LV dp/dt max)” value (shortened to “Change in Cardiac Contractility”) came to 16% and the “Change in Heart Rate” value is reported as 6%. Further, in the series on Anesthetized Dog (30 μg/kg), the “Change in Blood Pressure” value was -5%, the “Change in Cardiac Contractility” value is 68% and the “Change in Heart Rate” value is reported as 15%. Besides, in the series with Anesthetized Dog (100 μg/kg), the “Change in Blood Pressure” value is listed as -17%, the “Change in Cardiac Contractility” value came to 97% and the “Change in Heart Rate” value is 22%. Further, in series [1] (dose 3 ug), the “Coronary Blood Flow” value is listed as 25 Δ% and the “Femoral Blood Flow” value is reported as 18 Δ%. Further, in series [1] (dose 10 ug), the “Coronary Blood Flow” value is recorded as 63 Δ% and the “Femoral Blood Flow” value was 51 Δ%. Also, the “Femoral Blood Flow” value in series [1] (dose 30 ug) is given as 76 Δ%. Further, in the series with rats, the “death in acute toxicity test” value was “no death was noted”. Also, the “death in acute toxicity test” value with mice is recorded as “no death was noted”. Also, in series [2], the activation at 100 µM stood at 129%, the activation at 10 µM stood at 88% and the activation at 1 µM amounted to 40.7%. Further, the inhibition at 1 µM with platelets (1×10^-6 M) is 41%. Moreover, the inhibition at 3 µM with platelets (3×10^-6 M) was 90%. In the series on platelets (3×10^-7 M), the inhibition at 0.3 µM stood at 14%.

In the case of `CCc1[nH]c(=O)c(C#N)cc1-c1ccc2nc(C)cn2c1` [Example 2, 1,2-Dihydro-6-ethyl-5-(2-methylimidazo[1,2-a]pyridin-6-yl)-2-oxo-3-pyridinecarbonitrile], in series [2], the activation at 100 µM came out at 106%, the activation at 10 µM was found to be 73.5% and the activation at 1 µM was 34.1%.

Consider `CCc1[nH]c(=O)c(C#N)cc1-c1ccc2nccn2c1` [Example 6, 1,2-Dihydro-6-ethyl-5-(imidazo[1,2-a]pyridin-6-yl)-2-oxo-3-pyridinecarbonitrile], for which, in the series on Anesthetized Dog (10 μg/kg), the “Change in Blood Pressure” value was -1%, the “Change in Cardiac Contractility” value is 14% and the “Change in Heart Rate” value is recorded as 0%. Further, in the series on Anesthetized Dog (30 μg/kg), the “Change in Blood Pressure” value is recorded as -2%, the “Change in Cardiac Contractility” value was determined as 30% and the “Change in Heart Rate” value was found to be 5%. In addition, in the series with Anesthetized Dog (100 μg/kg), the “Change in Blood Pressure” value is -7%, the “Change in Cardiac Contractility” value was 58% and the “Change in Heart Rate” value amounted to 10%.

As to `Cc1cn2cc(-c3cc(C#N)c(=O)[nH]c3C)ccc2n1` [Example 7, 1,2-Dihydro-6-methyl-5-(2-methylimidazo[1,2-a]pyridin-6-yl)-2-oxo-3-pyridinecarbonitrile], in the series on Anesthetized Dog (10 μg/kg), the “Change in Blood Pressure” value was determined as 0%, the “Change in Cardiac Contractility” value came out at 21% and the “Change in Heart Rate” value amounted to 8%. Further, in the series with Anesthetized Dog (30 μg/kg), the “Change in Blood Pressure” value was -13%, the “Change in Cardiac Contractility” value amounted to 114% and the “Change in Heart Rate” value was 18%. In series [2], the activation at 100 µM turned out to be 130%, the activation at 10 µM was determined as 95.7% and the activation at 1 µM stood at 56.7%.

For the compound `Cc1[nH]c(=O)ccc1-c1ccc2nccn2c1` [Example 10, 1,2-Dihydro-6-methyl-5-(imidazo[1,2-a]pyridin-6-yl)-2-oxo-pyridine], in the series with Anesthetized Dog (10 μg/kg), the “Change in Blood Pressure” value was -2%, the “Change in Cardiac Contractility” value amounted to 11% and the “Change in Heart Rate” value turned out to be 2%. In addition, in the series on Anesthetized Dog (30 μg/kg), the “Change in Blood Pressure” value is -5%, the “Change in Cardiac Contractility” value was determined as 25% and the “Change in Heart Rate” value stood at 4%. Besides, in series [2], the activation at 100 µM turned out to be 110%, the activation at 10 µM came to 76.3% and the activation at 1 µM was determined as 37.9%.

Take `COc1nc(C)c(-c2ccc3nccn3c2)cc1C#N` [Example 14, 5-(Imidazo[1,2-a]pyridin-6-yl)-2-methoxy-6-methyl-3-pyridinecarbonitrile]: in the series on Anesthetized Dog (300 μg/kg), the “Change in Blood Pressure” value is -6%, the “Change in Cardiac Contractility” value worked out at 10% and the “Change in Heart Rate” value was found to be 6%. Besides, in the series with Anesthetized Dog (1000 μg/kg), the “Change in Blood Pressure” value was -4%, the “Change in Cardiac Contractility” value is 41% and the “Change in Heart Rate” value turned out to be 0%.

The term inhibition denotes the drop in the measured response relative to a control, in per cent.
